Where two headings read alike, the source gives them in different places. Marks after values point to notes of the source that are not given here. Bridge positions count the residues as written; N and C are the ends. Square brackets hold non-standard residues; d marks the D form. Peptide text beside a SMILES is read from it. * marks the point of attachment. DOTA = O=C(O)CN1CCN(CC(=O)O)CCN(CC(=O)*)CCN(CC(=O)O)CC1; dPhe(4-NHCONH2) = NC(=O)Nc1ccc(C[C@@H](N)C(=O)O)cc1; Dihydroorotyl(S) = O=C1C[C@@H](C(=O)*)NC(=O)N1; Phe(4-Cl) = N[C@@H](Cc1ccc(Cl)cc1)C(=O)O; Phe(4-NH2) = Nc1ccc(C[C@H](N)C(=O)O)cc1
Experiments:
SSTR2 = tested on: SSTR2; parameters: method as in Hou et al. [2022]; Zhu et al. [2020]; Fani et al. [2017]; details: compared to DOTA-TATE; ref Hou et al. [2022]; Zhu et al. [2020]; Fani et al. [2017]; cited from earlier work
in vitro = in vitro ADME; details: mouse, serum
Description: (§1) Haarlerbergweg, The Netherlands) (250 and 100 µL, respectively) at 37 °C. […] In mouse serum, the proteins were precipitated by adding an aliquot of the radiotracer to an equal volume of acetonitrile. The vial was vortexed vigorously and centrifuged for 20 min at 10,000 rpm. Stability studies were monitored by radio-HPLC (Additional file 1: Figs. S5 and S6).

[1] = in vivo; cited from earlier work
[2] = format: physicochemical; details: 37 °C, radio-HPLC, n = 1
Description: as §1

In the case of C[C@@H](O)[C@@H]1NC(=O)[C@H](CCCCN)NC(=O)[C@@H](Cc2ccc(NC(N)=O)cc2)NC(=O)[C@H](Cc2ccc(NC(=O)[C@@H]3CC(=O)NC(=O)N3)cc2)NC(=O)[C@H](NC(=O)[C@H](Cc2ccc(Cl)cc2)NC(=O)CN2CCN(CC(=O)O)CCN(CC(=O)O)CCN(CC(=O)O)CC2)CSSC[C@@H](C(=O)N[C@H](Cc2ccc(O)cc2)C(N)=O)NC1=O [DOTA-JR11] ({DOTA}-[Phe(4-Cl)][dC][Phe(4-NH2)](Dihydroorotyl(S))[dPhe(4-NHCONH2)]KTC[dY]-NH2; disulfide 2-7; C-terminus assumed), the “binding affinity to SSTR2” value (SSTR2) is given as “lower binding affinity”.

In the case of C[C@@H](O)[C@@H]1NC(=O)[C@H](CCCCN)NC(=O)[C@@H](Cc2ccc(NC(N)=O)cc2)NC(=O)[C@H](Cc2ccc(NC(=O)[C@@H]3CC(=O)NC(=O)N3)cc2)NC(=O)[C@H](NC(=O)[C@H](Cc2ccc(Cl)cc2)NC(=O)CN2CCN(CC(=O)O)CCN(CC(=O)O)CCN(CC(=O)O)CC2)CSSC[C@@H](C(=O)N[C@H](Cc2ccc(O)cc2)C(N)=O)NC1=O [[^177Lu]Lu-DOTA-JR11, metal not drawn] ({DOTA}-[Phe(4-Cl)][dC][Phe(4-NH2)](Dihydroorotyl(S))[dPhe(4-NHCONH2)]KTC[dY]-NH2; disulfide 2-7 (inferred); C-terminus assumed), the remaining at 2 h, 12 MBq/mL (in vitro) is reported as 94.5% and the remaining at 24 h, 12 MBq/mL (in vitro) is reported as 93.7%.

In the case of C[C@@H](O)[C@@H]1NC(=O)[C@H](CCCCN)NC(=O)[C@@H](Cc2ccc(NC(N)=O)cc2)NC(=O)[C@H](Cc2ccc(NC(=O)[C@@H]3CC(=O)NC(=O)N3)cc2)NC(=O)[C@H](NC(=O)[C@H](Cc2ccc(Cl)cc2)NC(=O)CN2CCN(CC(=O)O)CCN(CC(=O)O)CCN(CC(=O)O)CC2)CSSC[C@@H](C(=O)N[C@H](Cc2ccc(O)cc2)C(N)=O)NC1=O [[^177Lu]Lu-DOTA-JR11] [metal not drawn] ({DOTA}-[Phe(4-Cl)][dC][Phe(4-NH2)](Dihydroorotyl(S))[dPhe(4-NHCONH2)]KTC[dY]-NH2; disulfide 2-7 (inferred); C-terminus assumed), the hematologic toxicity [1] is given as “severe grade 4 hematologic toxicity”, the “PBS (%) intact radiolabeled peptide” value ([2]; 2 h, 1.2 MBq in 200 µL PBS) is given as 96.5% and the “PBS (%) intact radiolabeled peptide” value ([2]; 24 h, 1.2 MBq in 200 µL PBS) is given as 96.8%.

In the case of C[C@@H](O)[C@@H]1NC(=O)[C@H](CCCCN)NC(=O)[C@@H](Cc2ccc(NC(N)=O)cc2)NC(=O)[C@H](Cc2ccc(NC(=O)[C@@H]3CC(=O)NC(=O)N3)cc2)NC(=O)[C@H](NC(=O)[C@H](Cc2ccc(Cl)cc2)NC(=O)CN2CCN(CC(=O)O)CCN(CC(=O)O)CCN(CC(=O)O)CC2)CSSC[C@@H](C(=O)N[C@H](Cc2ccc(O)cc2)C(N)=O)NC1=O [[^225Ac]Ac-DOTA-JR11, metal not drawn] ({DOTA}-[Phe(4-Cl)][dC][Phe(4-NH2)](Dihydroorotyl(S))[dPhe(4-NHCONH2)]KTC[dY]-NH2; disulfide 2-7 (inferred); C-terminus assumed), the remaining at 22 h, 200 kBq/mL (in vitro) is reported as 80.9%, the remaining at 24 h, 200 kBq/mL (in vitro) is reported as 81.4% and the remaining at 27 h, 200 kBq/mL (in vitro) is reported as 81%.

In the case of C[C@@H](O)[C@@H]1NC(=O)[C@H](CCCCN)NC(=O)[C@@H](Cc2ccc(NC(N)=O)cc2)NC(=O)[C@H](Cc2ccc(NC(=O)[C@@H]3CC(=O)NC(=O)N3)cc2)NC(=O)[C@H](NC(=O)[C@H](Cc2ccc(Cl)cc2)NC(=O)CN2CCN(CC(=O)O)CCN(CC(=O)O)CCN(CC(=O)O)CC2)CSSC[C@@H](C(=O)N[C@H](Cc2ccc(O)cc2)C(N)=O)NC1=O [[^225Ac]Ac-DOTA-JR11] [metal not drawn] ({DOTA}-[Phe(4-Cl)][dC][Phe(4-NH2)](Dihydroorotyl(S))[dPhe(4-NHCONH2)]KTC[dY]-NH2; disulfide 2-7 (inferred); C-terminus assumed), the “PBS (%) intact radiolabeled peptide” value ([2]; radiolabeling condition 1, 22 h, 50 kBq in 500 µL PBS) is reported as 76.9^a %, the “PBS (%) intact radiolabeled peptide” value ([2]; radiolabeling condition 2 (without L-melatonin), 24 h, 50 kBq in 500 µL PBS) is reported as 56.6^b % and the “PBS (%) intact radiolabeled peptide” value ([2]; radiolabeling condition 3 (with L-melatonin), 27 h, 50 kBq in 500 µL PBS) is reported as 81.0^c %.

Reference: PMC10313624 (EJNMMI Radiopharmacy and Chemistry, 2023)
